Laboratory results as given in paper PMC9924091 (Journal of Medicinal Chemistry, 2023).
Like-named read-outs stand apart in the source and are kept apart here.

Tests used:
[1] = biological target: T1, SARS-CoV-2 PL^pro (Severe acute respiratory syndrome coronavirus 2, UniProt P0DTD1); assay: SPE-MS SARS-CoV-2 PL^pro inhibition assay; assay type: biochemical
T1 construct: PL^pro papain-like protease

[2] = tested on: SARS-CoV-2 virus (Victoria strain) in VeroE6 cells; assay: microbe, parasite or virus in culture; assay type: cell-based
[3] = biological target: T2, SARS-CoV-2 M^pro (Severe acute respiratory syndrome coronavirus 2, UniProt P0DTD1); details: M^pro 2.0 μM, inhibitor 10 μM, 20 mM HEPES pH 7.5, 90 min, ambient temperature
[4] = biological target: T2, SARS-CoV-2 M^pro; assay type: biochemical; set-up: M^pro main protease; made in house

| SMILES | inhibition of SARS-CoV-2 PL^pro (in words) [1] | inhibition of SARS-CoV-2 progression in infected VeroE6 cells (in words) [2] | also measured |
| --- | --- | --- | --- |
| C#C[C@H](C[C@@H]1CCNC1=O)NC(=O)[C@H](CC(C)C)NC(=O)OCc1ccccc1 [Compound 23] | None of the tested M^pro inhibitors inhibited SARS-CoV-2 PL^pro | did not show any inhibitory activity over the tested concentration range |  |
| C#C[C@H](C[C@@H]1CCNC1=O)NC(=O)[C@@H]1[C@@H]2[C@H](CN1C(=O)COc1ccc(C(F)(F)F)cc1)C2(C)C [Compound 19] | None of the tested M^pro inhibitors inhibited SARS-CoV-2 PL^pro | did not show any inhibitory activity over the tested concentration range |  |
| CC(C)(C)[C@H](NC(=O)C(F)(F)F)C(=O)N1C[C@H]2[C@@H]([C@H]1C(=O)N[C@H](C#Cc1ccc([N+](=O)[O-])cc1)C[C@@H]1CCNC1=O)C2(C)C [Compound 27b] | None of the tested M^pro inhibitors inhibited SARS-CoV-2 PL^pro |  |  |
| C#C[C@H](C[C@@H]1CCNC1=O)NC(=O)[C@@H]1[C@@H]2[C@H](CN1C(=O)COc1ccc(OC(F)(F)F)cc1)C2(C)C [Compound 18] | None of the tested M^pro inhibitors inhibited SARS-CoV-2 PL^pro | did not show any inhibitory activity over the tested concentration range |  |
| C#C[C@H](CCSC)NC(=O)[C@@H]1[C@@H]2[C@H](CN1C(=O)[C@@H](NC(=O)C(F)(F)F)C(C)(C)C)C2(C)C [Compound 14] | None of the tested M^pro inhibitors inhibited SARS-CoV-2 PL^pro |  |  |
| CC1(C)[C@@H]2[C@@H](C(=O)N[C@H](C#N)C[C@@H]3CCNC3=O)N(C(=O)COc3ccc(C(F)(F)F)cc3)C[C@@H]21 [Compound 21] | None of the tested M^pro inhibitors inhibited SARS-CoV-2 PL^pro |  |  |
| CC(C)(C)[C@H](NC(=O)C(F)(F)F)C(=O)N1C[C@H]2[C@@H]([C@H]1C(=O)N[C@H](C#Cc1ccccc1)C[C@@H]1CCNC1=O)C2(C)C [Compound 27a] |  |  | covalent reaction with M^pro by protein-observed SPE-MS (in words) [3]: reacts covalently; inhibition of SARS-CoV-2 PL^pro (in words) ([1]; SPE-MS PL^pro inhibition assay): None of the tested M^pro inhibitors inhibited SARS-CoV-2 PL^pro |
| CC(C)(C)[C@H](NC(=O)C(F)(F)F)C(=O)N1C[C@H]2[C@@H]([C@H]1C(=O)N[C@H](C#CC(F)(F)F)C[C@@H]1CCNC1=O)C2(C)C [Compound 28] | None of the tested M^pro inhibitors inhibited SARS-CoV-2 PL^pro |  |  |
| CSCC[C@@H](C#N)NC(=O)[C@@H]1[C@@H]2[C@H](CN1C(=O)[C@@H](NC(=O)C(F)(F)F)C(C)(C)C)C2(C)C [Compound 15] | None of the tested M^pro inhibitors inhibited SARS-CoV-2 PL^pro |  | IC50 ([1]; isolated recombinant SARS-CoV-2 PL^pro, SPE-MS, n = 2, mean ± SD): > 100 µM; IC50 [4]: 0.89 ± 0.17 µM; fold less efficient inhibition of isolated M^pro (higher IC50) than alkyne 13 [4]: ~6 fold; fold less efficient inhibition of SARS-CoV-2 progression in infected VeroE6 cells than nirmatrelvir (1) [2]: ~5 fold; EC50 ([2]; Severe acute respiratory syndrome coronavirus 2, Vero C1008): ~11.8 µM |
| CC1(C)[C@@H]2[C@@H](C(=O)N[C@H](C#N)C[C@@H]3CCNC3=O)N(C(=O)COc3ccc(OC(F)(F)F)cc3)C[C@@H]21 [Compound 20] | None of the tested M^pro inhibitors inhibited SARS-CoV-2 PL^pro |  |  |
